Laboratory results reported in patent US9034909B2, “Use of organic compound for the treatment of Noonan Syndrome” (Novartis AG, priority 2011, dated 2015).

Target: MEK1 (Homo sapiens, UniProt Q02750)
Assay: isolated enzyme assay, MEK1 inhibition
Type: biochemical
Conditions: read-out: 50% inhibition (IC50) value
Description: The compound of Formula (I) is 6-(4-bromo-2-fluorophenylamino)-7-fluoro-3-methyl-3H-benzoimidazole-5-carboxylic acid (2-hydroxyethoxy)-amide (COMPOUND A). The compound of Formula (I) is described in PCT Application No. WO 03/077914, which is hereby incorporated by reference in its entirety hereto, and methods for its preparation have been described, for example, in Example 18 therein.

MEK1, sequence (Q02750 whole entry, species assumed): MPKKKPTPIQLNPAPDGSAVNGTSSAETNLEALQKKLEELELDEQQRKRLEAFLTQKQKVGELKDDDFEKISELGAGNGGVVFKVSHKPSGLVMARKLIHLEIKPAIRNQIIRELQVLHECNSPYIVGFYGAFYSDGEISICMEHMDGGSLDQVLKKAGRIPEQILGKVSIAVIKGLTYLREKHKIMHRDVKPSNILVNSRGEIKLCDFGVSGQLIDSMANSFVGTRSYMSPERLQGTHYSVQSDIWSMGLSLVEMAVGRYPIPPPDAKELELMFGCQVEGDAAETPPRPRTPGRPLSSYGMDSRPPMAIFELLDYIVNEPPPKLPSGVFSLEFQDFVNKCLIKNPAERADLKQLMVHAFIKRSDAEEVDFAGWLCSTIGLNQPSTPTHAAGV

IC50: 0.012 µM
SMILES: Cn1cnc2c(F)c(Nc3ccc(Br)cc3F)c(C(=O)NOCCO)cc21 [COMPOUND A, 6-(4-bromo-2-fluorophenylamino)-7-fluoro-3-methyl-3H-benzoimidazole-5-carboxylic acid (2-hydroxyethoxy)-amide]
